Reference: ChEMBL document CHEMBL3132794, “Imidazolium salts as antifungal agents: activity against emerging yeast pathogens, without human leukocyte toxicity” (Medchemcomm, 2013)
In brackets after ≈: the same amount, converted by molar mass.

Experiments:
Trichosporon asahii [1] = assay: Antifungal activity against Trichosporon asahii clinical isolates by broth microdilution method; format: functional
[2] = Toxicity against human Leukocyte cells assessed induction of structural damage by microscopy; format: cell-based
[3] = Toxicity against human Leukocyte cells assessed as reduction in cell viability by trypan blue exclusion assay; format: cell-based
Candida parapsilosis [4] = assay: Antifungal activity against Candida parapsilosis clinical isolates by broth microdilution method; format: functional; conditions: Lodderomyces parapsilosis
[5] = Genotoxicity in human Leukocyte cells assessed as induction of DNA single strand breaks by single gel electrophoresis based alkaline comet assay; format: toxicity, cell-based
Nakaseomyces glabratus [6] = assay: Antifungal activity against Candida glabrata clinical isolates by broth microdilution method; format: functional
Candida tropicalis [7] = assay: Antifungal activity against Candida tropicalis clinical isolates by broth microdilution method; format: functional
Candida tropicalis [8] = assay: Inhibition of ergosterol biosynthesis in Candida tropicalis clinical isolates assessed as reduction in mean cellular ergosterol content by spectrophotometry; format: functional
Trichosporon asahii [9] = assay: Inhibition of ergosterol biosynthesis in Trichosporon asahii clinical isolates assessed as reduction in mean cellular ergosterol content by spectrophotometry; format: functional
Candida parapsilosis [10] = assay: Inhibition of ergosterol biosynthesis in Candida parapsilosis clinical isolates assessed as reduction in mean cellular ergosterol content by spectrophotometry; format: functional
Nakaseomyces glabratus [11] = assay: Inhibition of ergosterol biosynthesis in Candida glabrata clinical isolates assessed as reduction in mean cellular ergosterol content by spectrophotometry; format: functional

## CCCCCCCCCCn1cc[n+](C)c1.[Cl-]
Trichosporon asahii [1]
  MIC: 7.8 µg/mL
  MIC50: 31.2 µg/mL
[2]
  Activity: Non-toxic
[3]
  Activity: Non-toxic
Candida parapsilosis [4]
  MIC: 1.9 µg/mL
  MIC50: 7.8 µg/mL
[5]
  Activity: Non-toxic
Nakaseomyces glabratus [6]
  MIC: 7.8 µg/mL
  MIC50: 15.6 µg/mL
Candida tropicalis [7]
  MIC: 0.9 µg/mL
  MIC50: 1.9 µg/mL

## CCCCCCCCCCCCCCCCn1cc[n+](C)c1.F[P-](F)(F)(F)(F)F
Trichosporon asahii [1]
  MIC: 15.6 µg/mL
  MIC50: 15.6 µg/mL
[2]
  Activity: Non-toxic
[3]
  Activity: Non-toxic
Candida parapsilosis [4]
  MIC: 0.9 µg/mL
  MIC50: 7.8 µg/mL
[5]
  Activity: Non-toxic
Nakaseomyces glabratus [6]
  MIC: 1.9 µg/mL
  MIC50: 3.9 µg/mL
Candida tropicalis [7]
  MIC: 0.9 µg/mL
  MIC50: 1.9 µg/mL

## CCCCCCCCCCn1cc[n+](C)c1.CS(=O)(=O)[O-]
Trichosporon asahii [1]
  MIC: 31.2 µg/mL
  MIC50: 62.5 µg/mL
[2]
  Activity: Non-toxic
[3]
  Activity: Non-toxic
Candida parapsilosis [4]
  MIC: 1.9 µg/mL
  MIC50: 7.8 µg/mL
[5]
  Activity: Non-toxic
Nakaseomyces glabratus [6]
  MIC: 15.6 µg/mL
  MIC50: 31.2 µg/mL
Candida tropicalis [7]
  MIC: 1.9 µg/mL
  MIC50: 1.9 µg/mL

## CCCCCCCCCCCCCCCCn1cc[n+](C)c1.F[B-](F)(F)F
Candida tropicalis [8]
  inhibition (INH): 33%
Trichosporon asahii [1]
  MIC: 1.95 µg/mL
  MIC50: 3.9 µg/mL
[2]
  Activity: Non-toxic
Trichosporon asahii [9]
  inhibition (INH): 33%
[3]
  Activity: Non-toxic
Candida parapsilosis [4]
  MIC: 0.4 µg/mL
  MIC50: 3.9 µg/mL
Candida parapsilosis [10]
  inhibition (INH): 33%
Nakaseomyces glabratus [11]
  inhibition (INH): 33%
[5]
  Activity: Non-toxic
Nakaseomyces glabratus [6]
  MIC: 0.9 µg/mL
  MIC50: 0.9 µg/mL
Candida tropicalis [7]
  MIC: 0.9 µg/mL
  MIC50: 0.9 µg/mL

## CCCCCCCCCCCCCCn1cc[n+](C)c1.O=S(=O)([N-]S(=O)(=O)C(F)(F)F)C(F)(F)F
Trichosporon asahii [1]
  MIC: 31.2 µg/mL
  MIC50: 62.5 µg/mL
[2]
  Activity: Non-toxic
[3]
  Activity: Non-toxic
Candida parapsilosis [4]
  MIC: 0.9 µg/mL
  MIC50: 0.9 µg/mL
[5]
  Activity: Non-toxic
Nakaseomyces glabratus [6]
  MIC: 3.9 µg/mL
  MIC50: 15.6 µg/mL
Candida tropicalis [7]
  MIC: 0.9 µg/mL
  MIC50: 0.9 µg/mL

## CCCCCCCCCCCCCCCCn1cc[n+](C)c1.[Cl-]
Trichosporon asahii [1]
  MIC: 0.9 µg/mL
  MIC50: 0.9 µg/mL
[2]
  Activity: Non-toxic
[3]
  Activity: Non-toxic
Candida parapsilosis [4]
  MIC: 0.9 µg/mL
  MIC50: 0.9 µg/mL
[5]
  Activity: Non-toxic
Nakaseomyces glabratus [6]
  MIC: 0.9 µg/mL
  MIC50: 0.9 µg/mL
Candida tropicalis [7]
  MIC: 0.9 µg/mL
  MIC50: 0.9 µg/mL

## OC(Cn1cncn1)(Cn1cncn1)c1ccc(F)cc1F [FLUCONAZOLE]
Trichosporon asahii [1]
  MIC: 4 µg/mL (≈ 13.1 µM)
  MIC50: 8 µg/mL (≈ 26.1 µM)
Candida parapsilosis [4]
  MIC: 1 µg/mL (≈ 3.27 µM)
  MIC50: 1 µg/mL (≈ 3.27 µM)
Nakaseomyces glabratus [6]
  MIC: 4 µg/mL (≈ 13.1 µM)
  MIC50: 8 µg/mL (≈ 26.1 µM)
Candida tropicalis [7]
  MIC: 2 µg/mL (≈ 6.53 µM)
  MIC50: 8 µg/mL (≈ 26.1 µM)

## CC(=O)N1CCN(c2ccc(OCC3COC(Cn4ccnc4)(c4ccc(Cl)cc4Cl)O3)cc2)CC1 (stereo unspecified) [KETOCONAZOLE]
Trichosporon asahii [1]
  MIC: 0.25 µg/mL (≈ 0.47 µM)
  MIC50: 4 µg/mL (≈ 7.53 µM)
Candida parapsilosis [4]
  MIC: 0.125 µg/mL (≈ 0.235 µM)
  MIC50: 1 µg/mL (≈ 1.88 µM)
Nakaseomyces glabratus [6]
  MIC: 0.5 µg/mL (≈ 0.941 µM)
  MIC50: 4 µg/mL (≈ 7.53 µM)
Candida tropicalis [7]
  MIC: 0.25 µg/mL (≈ 0.47 µM)
  MIC50: 4 µg/mL (≈ 7.53 µM)
